Laboratory results from patent publication US20140335050A1, “METHODS, COMPOSITIONS, AND KITS FOR THE TREATMENT OF CANCER” (The General Hospital Corporation, priority 2011, published 2014).

How the values were obtained:
U-87 MG glioma cell line = assay: Antibody staining and flow cytometry (intracellular gp100; surface MHC Class I); type: cell-based, human
Protocol: (§1) Cells were fixed with 1% formaldehyde, permeabilized with 0.1% saponin, stained with monoclonal antibodies to melanocyte antigens. Antibodies were obtained with specificity for: MART-1 from Vector Labs (Burlingame, Calif.); gp100 HMB45 from DakoCytomation (Carpinteria, Calif.) and then visualized with goat anti-mouse FITC-conjugated secondary antibody from Invitrogen (Fredrick, Md.). The level of EGFP was determined by flow cytometry of unfixed cells that were washed and resuspended in 1×PBS.
(§2) Cells were plated at a density of 1×10^5 in 1 ml of medium in a 24-well plate and cultured for varying times as indicated in results. […] After incubation, cells were collected by trypsinization and then evaluated by flow cytometry.
(§3) Intracellular staining and flow cytometric analyses of cytoplasmic Melan-A/MART-1, and gp100 expression were performed as described previously. Cells were fixed with 1% formaldehyde, permeabilized with 0.1% saponin, stained with monoclonal antibodies to melanocyte antigens. Antibodies were obtained with specificity for: Melan-A/MART-1 from Vector Labs (Burlingame, Calif.); gp100/HMB45 from DakoCytomation (Carpinteria, Calif.) and then visualized with goat anti-mouse FITC-conjugated secondary antibody from Invitrogen (Frederick, Md.). The level of EGFP was determined by flow cytometry of unfixed cells washed and resuspended in 1×PBS. Surface staining of MHC Class I was carried out using the antibody W6/32 on cells harvested with Cell Stripper from MediaTech Inc. (Manassas, Va.) and carried out on ice.

A375 melanoma cell line = assay: Antibody staining and flow cytometry (intracellular Melan-A/MART-1, gp100, TRP-2; surface MHC Class I); type: cell-based, human
Protocol: as §1, §2, §3
(§4) Cell were seeded at 1×10^6 cells in a T25 flask with 10 ml of media for the 4 day IFN-beta pre-treatments. Cells were then harvested and plated in 24 well plate at 1×10^5 cells per well in 1 ml of media for 3 day treatments.
(§5) For surface staining of HLA Class I and II antigens, cells were harvested using CellStripper™ from Mediatech (Manassas, Va.). All staining steps were performed on ice. Following a first incubation with antibody to Class I (W6/32) or Class II (L243) for 30 minutes. Stained cells were washed twice with cold PBS and then stained with a goat anti-mouse FITC secondary antibody to allow for quantitative analysis by flow cytometry. For evaluation of cytoplasmic antigens, including Melan-A/MART-1 and gp100, cells were first fixed in paraformaldehyde and permeabilized with saponin as previously described. Staining for cytoplasmic antigens was carried out at room temperature (22° C.).

MUX melanoma cell line = assay: as above; type: cell-based, human; details: MUX
Protocol: as §1, §2, §3, §4, §5

[1] = system: MALME-3M melanoma cell line; assay: as above; type: cell-based, human
Protocol: as §1, §2, §3

[2] = system: B16 murine melanoma cell line; assay: Antibody staining and flow cytometry (intracellular gp100, TRP-2; surface Class I with H2kb antibody); type: cell-based, mouse; details: 3 days, 17-AEP 0.5, PU-H71 0.15, CCT018159 2.5 μg/ml
From the text: To further evaluate enhancement of immune recognition of cancer cells by inhibition of Hsp90 function, it was shown that a total of twelve different Hsp90 inhibitors were active in several molecular and cellular assays on a series of cell lines, including eleven human melanomas, the murine B16 melanoma, and two human gliomas. […] The melanomas all express varying levels of differentiation antigens Melan-A/MART-1, gp100 and TRP-2, as well as the MHC-Class I antigen (as evidenced by W6/32 antibody staining) that is required for T cell recognition of the tumor cells. Each of these antigens is enhanced by all of the Hsp90 inhibitors. […] Similar to the human counterparts, the B16 mouse tumor also can be induced to express enhanced antigen levels upon 3-day exposure to each of the Hsp90 inhibitors (Table 16). The mouse H-2 Class I antigen is likewise induced by the Hsp90 inhibitors.
General culture conditions for cell propagation and the origins of most of the melanoma cell lines have been previously described. Melanoma cells were cultured in DMEM with 10% FBS. The glioma cell lines U87 MG and U118 MG were obtained from the American Type Culture Collection (ATCC). The B16 murine melanoma cell line was provided by Dr. Andrew Hurwitz and has been previously described. The T cell receptor (TCR)-negative Jurkat T cell line derivative J.RT3-T3.5 was obtained from ATCC. The construction of the J.RT3-T3.5 cell line expressing a Melan-A/MART-1 specific TCR has been described previously. T cells were cultured in RPMI with 10% FBS. IFN-beta-1a (Avonex) was obtained from Biogen-Idec (Cambridge, Mass.) and reconstituted according to the manufacturer's recommendations. The Hsp90 inhibitor radicicol was purchased from A.G. Scientific (San Diego, Calif.). Novobiocin was ordered from BioMol (Plymouth Meeting, Pa.). 17-DMAG was obtained from LC laboratories (Woburn, Mass.). 17-AEP-AP was purchased from InVivoGen (San Diego, Calif.). […] Gedunin, CCT018159, and celastrol were purchased from Tocris (Ellisville, Mo.). Selleck Chemicals (Houston, Tex.) provided NVP-AUY922 and BIIB021.
Cells were plated at a density of 1×10^5 in 1 ml of medium in a 24-well plate and cultured for varying times as indicated in results. Typically, 3 days of culture in the presence of Hsp90 inhibitors was optimal for the functional studies performed. After incubation, cells were collected by trypsinization and then evaluated by flow cytometry.
as §3

[3] = U-87 MG, 3 days, IFN-beta 5000 Units/ml, 17-AEP 0.5, PU-H71 0.3, CCT018159 5.0 μg/ml
[4] = 3 days, IFN-beta 5000 Units/ml, 17-AEP 0.5, PU-H71 0.15, CCT018159 2.5 μg/ml
[5] = 3 days, IFN-beta 5000 Units/ml, 17-AEP 1.0, PU-H71 0.3, CCT018159 10.0 μg/ml
[6] = MALME-3M, 3 days, IFN-beta 5000 Units/ml, 17-AEP 1.0, PU-H71 0.3, CCT018159 10.0 μg/ml

CC(C)NCCCn1c(Sc2cc3c(cc2I)OCO3)nc2c(N)ncnc21 [PU-H71]
Class I, geometric mean of surface staining (W6/32) (U-87 MG glioma cell line; [3]): 53 | gp100, geometric mean of intracellular staining (U-87 MG glioma cell line; [3]): 66 | MHC Class I, geometric mean of surface staining (W6/32) (U-87 MG glioma cell line; U-87 glioma, three days, IFN-β 5000 Units/ml, PU-H71 0.075-0.3): 71 | Class I, geometric mean of surface staining (W6/32) (A375 melanoma cell line; [4]): 71 | MART-1, geometric mean of intracellular staining (A375 melanoma cell line; [4]): 11 | TRP-2, geometric mean of intracellular staining (A375 melanoma cell line; [4]): 26 | gp100, geometric mean of intracellular staining (A375 melanoma cell line; [4]): 24 | MHC Class I, geometric mean of surface staining (W6/32) (A375 melanoma cell line; 4 day IFN-β pre-treatment (5000 Units/ml), then 3 days with fresh IFN-β and the labelled HSP90 inhibitor (label IFN-β: no inhibitor), 17-AEP 0.5, PU-H71 0.15, CCT018159 2.5): 226 | MHC Class I, geometric mean of surface staining (W6/32) (A375 melanoma cell line; 4 day IFN-β pre-treatment (5000 Units/ml), then 3 days without IFN-β with the labelled HSP90 inhibitor (label IFN-β: no inhibitor), 17-AEP 0.5, PU-H71 0.15, CCT018159 2.5): 174 | MHC Class I, geometric mean of surface staining (W6/32) (A375 melanoma cell line; single agent for 3 days, no IFN-β pre-treatment, IFN-β 5000 Units/ml, 17-AEP 0.5, PU-H71 […], CCT018159 2.5): 131 | MHC Class I, geometric mean of surface staining (W6/32) (A375 melanoma cell line; three days, IFN-β 5000 Units/ml, 17-AEP 0.5, PU-H71 […], CCT018159 2.5): 71 | Class I, geometric mean of surface staining (W6/32) (MUX melanoma cell line; [5]): 212 | MART-1, geometric mean of intracellular staining (MUX melanoma cell line; [5]): 19 | TRP-2, geometric mean of intracellular staining (MUX melanoma cell line; [5]): 41 | gp100, geometric mean of intracellular staining (MUX melanoma cell line; [5]): 32 | MHC Class I, geometric mean of surface staining (W6/32) (MUX melanoma cell line; 4 day IFN-β pre-treatment (5000 Units/ml), then 3 days with fresh IFN-β and the labelled HSP90 inhibitor (label IFN-β: no inhibitor), 17-AEP 1, PU-H71 0.3, CCT018159 10 mg/ml): 579 | MHC Class I, geometric mean of surface staining (W6/32) (MUX melanoma cell line; 4 day IFN-β pre-treatment (5000 Units/ml), then 3 days without IFN-β with the labelled HSP90 inhibitor (label IFN-β: no inhibitor), 17-AEP 1, PU-H71 0.3, CCT018159 10 mg/ml): 477 | MHC Class I, geometric mean of surface staining (W6/32) (MUX melanoma cell line; single agent for 3 days, no IFN-β pre-treatment, IFN-β 5000 Units/ml, 17-AEP 1 μg/ml, PU-H71 0.3 μg/ml, CCT018159 10 μg/ml): 282 | MHC Class I, geometric mean of surface staining (W6/32) (MUX melanoma cell line; three days, IFN-β 5000 Units/ml, 17-AEP 1 μg/ml, PU-H71 0.3 μg/ml, CCT018159 10 μg/ml): 212 | Class I, geometric mean of surface staining (W6/32) [1, 6]: 137 | MART-1, geometric mean of intracellular staining [1, 6]: 226 | TRP-2, geometric mean of intracellular staining [1, 6]: 279 | gp100, geometric mean of intracellular staining [1, 6]: 511 | MHC Class I, geometric mean of surface staining (W6/32) ([1]; MALME, three days, IFN-β 5000 Units/ml): 137 | Class I, geometric mean of surface staining (H2kb) [2]: 14 | TRP-2, geometric mean of intracellular staining [2]: 360 | gp100, geometric mean of intracellular staining [2]: 595
